Measurements: the supplement of paper PMC10307832

Tests used:
Test in all cases: relative viability (nuclei count vs DMSO), 5 days (fraction); higher = more cells survive
[1] = tested on: RERF-LC-KJ
In short: (§1)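 Each reported value is a median over duplicate plates. It expresses relative viability: treated-well nuclei count divided by vehicle-well nuclei count. Lung cancer cell lines in 1536-well plates were dosed by pin tool a day after seeding, alone with one drug or with a fixed anchor-drug dose plus five library-drug doses (not always all listed) in √10 steps, and nuclei were counted after 5 days.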

[2] = tested on: NCI-H1563
In short: as §1

[3] = tested on: LCLC-97TM1
In short: as §1

[4] = tested on: NCI-H1651
In short: as §1

[5] = tested on: NCI-H838
In short: as §1

[6] = tested on: NCI-H727
In short: as §1

[7] = tested on: H3255
In short: as §1

[8] = tested on: LCLC-103H
In short: as §1

[9] = tested on: A-427
In short: as §1

[10] = tested on: NCI-H1793
In short: as §1

[11] = tested on: NCI-H23
In short: as §1

[12] = tested on: LU99A
In short: as §1

[13] = tested on: NCI-H2347
In short: as §1

[14] = tested on: PC-14
In short: as §1

[15] = tested on: PC-3 [JPC-3]
In short: as §1

[16] = tested on: SW 900
In short: as §1

[17] = tested on: NCI-H1650
In short: as §1

[18] = tested on: NCI-H460
In short: as §1

[19] = tested on: LK-2
In short: as §1

[20] = tested on: COR-L23
In short: as §1

[21] = tested on: NCI-H1944
In short: as §1

[22] = tested on: NCI-H650
In short: as §1

[23] = tested on: SW 1573
In short: as §1

[24] = tested on: 201T
In short: as §1

Compound: CC(C)Oc1cc(Nc2nc(N[C@@H](C)c3ccc(F)cn3)ncc2Cl)n[nH]1 [AZ23] + N=C(N)NC(=N)NCCc1ccccc1 [Phenformin] (partner 250 µM)
- relative viability ([1]; first compound 0.01 µM): 0.455
- relative viability ([1]; first compound 0.03162 µM): 0.457
- relative viability ([1]; first compound 0.3162 µM): 0.463
- relative viability ([2]; first compound 0.01 µM): 0.708
- relative viability ([2]; first compound 0.03162 µM): 0.653
- relative viability ([2]; first compound 0.3162 µM): 0.707
- relative viability ([3]; first compound 0.01 µM): 0.502
- relative viability ([3]; first compound 0.03162 µM): 0.485
- relative viability ([3]; first compound 0.3162 µM): 0.417
- relative viability ([4]; first compound 0.03162 µM): 0.332
- relative viability ([4]; first compound 0.3162 µM): 0.356
- relative viability ([5]; first compound 0.01 µM): 0.546
- relative viability ([5]; first compound 0.03162 µM): 0.586
- relative viability ([5]; first compound 0.3162 µM): 0.597
- relative viability ([6]; first compound 0.01 µM): 0.571
- relative viability ([6]; first compound 0.03162 µM): 0.552
- relative viability ([6]; first compound 0.3162 µM): 0.485
- relative viability ([7]; first compound 0.01 µM): 0.323
- relative viability ([7]; first compound 0.03162 µM): 0.364
- relative viability ([7]; first compound 0.3162 µM): 0.327
- relative viability ([8]; first compound 0.01 µM): 0.339
- relative viability ([8]; first compound 0.03162 µM): 0.352
- relative viability ([8]; first compound 0.3162 µM): 0.333
- relative viability ([9]; first compound 0.01 µM): 0.301
- relative viability ([9]; first compound 0.03162 µM): 0.365
- relative viability ([9]; first compound 0.3162 µM): 0.281
- relative viability ([10]; first compound 0.01 µM): 0.366
- relative viability ([10]; first compound 0.03162 µM): 0.439
- relative viability ([10]; first compound 0.3162 µM): 0.45
- relative viability ([11]; first compound 0.03162 µM): 0.89
- relative viability ([11]; first compound 0.3162 µM): 0.783
- relative viability ([12]; first compound 0.01 µM): 0.912
- relative viability ([12]; first compound 0.03162 µM): 0.976
- relative viability ([12]; first compound 0.3162 µM): 0.882
- relative viability ([13]; first compound 0.01 µM): 0.341
- relative viability ([13]; first compound 0.03162 µM): 0.333
- relative viability ([13]; first compound 0.3162 µM): 0.455
- relative viability ([14]; first compound 0.03162 µM): 0.781
- relative viability ([14]; first compound 0.3162 µM): 0.703
- relative viability ([15]; first compound 0.01 µM): 0.502
- relative viability ([15]; first compound 0.03162 µM): 0.453
- relative viability ([15]; first compound 0.3162 µM): 0.476
- relative viability ([16]; first compound 0.01 µM): 0.734
- relative viability ([16]; first compound 0.03162 µM): 0.879
- relative viability ([16]; first compound 0.3162 µM): 0.799
- relative viability ([17]; first compound 0.03162 µM): 0.537
- relative viability ([17]; first compound 0.3162 µM): 0.405
- relative viability ([18]; first compound 0.01 µM): 0.335
- relative viability ([18]; first compound 0.03162 µM): 0.601
- relative viability ([18]; first compound 0.3162 µM): 0.549
- relative viability ([19]; first compound 0.01 µM): 0.303
- relative viability ([19]; first compound 0.03162 µM): 0.401
- relative viability ([19]; first compound 0.3162 µM): 0.311
- relative viability ([20]; first compound 0.01 µM): 0.367
- relative viability ([20]; first compound 0.03162 µM): 0.512
- relative viability ([20]; first compound 0.3162 µM): 0.462
- relative viability ([21]; first compound 0.01 µM): 0.197
- relative viability ([21]; first compound 0.03162 µM): 0.225
- relative viability ([21]; first compound 0.3162 µM): 0.219
- relative viability ([22]; first compound 0.01 µM): 0.432
- relative viability ([22]; first compound 0.03162 µM): 0.461
- relative viability ([22]; first compound 0.3162 µM): 0.466
- relative viability ([23]; first compound 0.01 µM): 0.347
- relative viability ([23]; first compound 0.03162 µM): 0.512
- relative viability ([23]; first compound 0.3162 µM): 0.465
- relative viability ([24]; first compound 0.01 µM): 0.539
- relative viability ([24]; first compound 0.03162 µM): 0.438
- relative viability ([24]; first compound 0.3162 µM): 0.486
